The values that follow come from patent US8138175B2, “Heterocyclyl compounds” (Hoffmann-La Roche Inc., priority 2008, dated 2012).

The assay concerns the target T1, human chemokine receptor 2 isoform B (Homo sapiens, UniProt P41597).
T1 construct: host or cells: CHOK1-CCR2B-A5 (CHO-K1) cells
T1 sequence (P41597 1-360 isoform P41597-2): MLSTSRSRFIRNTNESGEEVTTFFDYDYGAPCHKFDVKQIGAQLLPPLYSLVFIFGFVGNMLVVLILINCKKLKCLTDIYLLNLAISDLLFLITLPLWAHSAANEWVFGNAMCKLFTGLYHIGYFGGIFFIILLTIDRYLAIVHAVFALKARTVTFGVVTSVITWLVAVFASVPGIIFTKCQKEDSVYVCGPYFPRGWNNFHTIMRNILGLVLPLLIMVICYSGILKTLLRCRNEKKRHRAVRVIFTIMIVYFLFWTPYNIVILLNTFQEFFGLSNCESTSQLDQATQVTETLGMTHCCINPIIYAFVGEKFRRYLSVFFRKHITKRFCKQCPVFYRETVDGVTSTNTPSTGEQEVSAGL
The assay is described as follows: Calcium mobilization assay. The class given is cell-based. Particulars: Ca mobilization assay for CCR2; CHOK1-CCR2B-A5 cells; antagonist activity against 20 nM MCP-1; FLIPR, Fluo-4. On the procedure:
Calcium Mobilization Assay
CHOK1-CCR2B-A5 cells (from Euroscreen) stably overexpressing the human chemokine receptor 2 isoform B were cultured in Nutrient Hams F12 medium supplemented with 5% FBS, 100 U/ml penicillin, 100 μg/ml streptomycin, 400 μg/ml G418 and 5 μg/ml puromycin.
For the assay cells were grown overnight in 384-well black clear flat bottom polystyrene plates (Costar) at 37° C. at 5% CO2. After washing with DMEM, 20 mM Hepes, 2.5 mM probenecid, 0.1% BSA (DMEM assay buffer) cells were loaded with 4 μM Fluo-4 in the same DMEM assay buffer for 2 hours at 30° C. Excess dye was removed and cells were washed with DMEM assay buffer. 384-well compound plates were prepared with DMEM assay buffer/0.5% dimethyl sulfoxide with or without various concentrations of test compounds. Usually compounds were tested for agonist and antagonist activity.
Test compounds were added to the assay plate and agonist activity was monitored as fluorescence for 80 seconds with a FLIPR (488 nm excitation; 510-570 nm emission; Molecular Devices). After 20-30 min. of incubation at 30° C., 20 nM MCP-1 (R&D; Roche) was added and fluorescence was monitored again for 80 seconds. Increases in intracellular calcium are reported as maximum fluorescence after agonist exposure minus basal fluorescence before exposure. Antagonist activity is indicated as inhibitor concentration required for 50% inhibition of specific calcium increases.
A general note: A change in cytosolic calcium serves as a functional read-out for many receptors and channels.

Usually IC50 stands for the concentration that inhibits the measured activity by half. Take `C[C@H]1C[C@H](O)CN(CCC(C(=O)N(C)C)N2CCN(c3cccc(C(F)(F)F)c3)CCC2=O)C1` (stereo partly drawn) [Example 18, (R,S)-4-((3S,5S)-3-Hydroxy-5-methyl-piperidin-1-yl)-N,N-dimethyl-2-[7-oxo-4-(3-trifluoromethyl-phenyl)-[1,4]diazepan-1-yl]-butyramide]: the IC50 stood at 650 nM.
Take `COC(=O)[C@H](CCN1CCC2(CC2)[C@H](O)C1)N1CCN(c2ccc(C(F)(F)F)cc2)CCC1=O` [Example 19, (S)-4-((S)-4-Hydroxy-6-aza-spiro[2.5]oct-6-yl)-2-[7-oxo-4-(4-trifluoromethyl-phenyl)-[1,4]diazepan-1-yl]-butyric acid methyl ester]: the IC50 stood at 410 nM.
The value for `O=C1CCN(c2ccc(C(F)(F)F)cc2)CCN1[C@H](CO)CCN1CCC2(CC2)[C@H](O)C1` [Example 20, 4-[(S)-3-((S)-4-Hydroxy-6-aza-spiro[2.5]oct-6-yl)-1-hydroxymethyl-propyl]-1-(4-trifluoromethyl-phenyl)-[1,4]diazepan-5-one] was 350 nM; that for `CN(C)C(=O)[C@H](CCN1CCC2(CC2)[C@H](O)C1)N1CCN(c2cccc(C(F)(F)F)c2)CCC1=O` [Example 22, (S)-4-((S)-4-Hydroxy-6-aza-spiro[2.5]oct-6-yl)-N,N-dimethyl-2-[7-oxo-4-(3-trifluoromethyl-phenyl)-[1,4]diazepan-1-yl]-butyramide] was 100 nM.
For `COC[C@H](CCN1CCC2(CC2)[C@H](O)C1)N1CCN(c2cccc(C(F)(F)F)c2)CCC1=O` [Example 23, 4-[(S)-3-((S)-4-Hydroxy-6-aza-spiro[2.5]oct-6-yl)-1-methoxymethyl-propyl]-1-(3-trifluoromethyl-phenyl)-[4]diazepan-5-one] the value was 10 nM.
On to `COC[C@H](CCN1C[C@@H](C)C[C@H](O)C1)N1CCN(c2cccc(C(F)(F)F)c2)CCC1=O` [Example 24, 4-[(S)-3-((3S,5S)-3-Hydroxy-5-methyl-piperidin-1-yl)-1-methoxymethyl-propyl]-1-(3-trifluoromethyl-phenyl)-[1,4]diazepan-5-one], for which the IC50 was 90 nM.
For the molecule `O=C1CCN(c2cccc(C(F)(F)F)c2)CCN1C(CO)CCCN1CCC2(CC2)[C@H](O)C1` (stereo partly drawn) [Example 27, 4-[(R,S)-4-((S)-4-Hydroxy-6-aza-spiro[2.5]oct-6-yl)-1-hydroxymethyl-butyl]-1-(3-trifluoromethyl-phenyl)-[1,4]diazepan-5-one], the IC50 was 70 nM.
For `COCC(CCCN1CCC2(CC2)[C@H](O)C1)N1CCN(c2cccc(C(F)(F)F)c2)CCC1=O` (stereo partly drawn) [Example 28, 4-[(R,S)-4-((S)-4-Hydroxy-6-aza-spiro[2.5]oct-6-yl)-t-methoxymethyl-butyl]-1-(3-trifluoromethyl-phenyl)-[1,4]diazepan-5-one] the value was 400 nM.
Turning to `O=C1CCN(c2cccc(OC(F)(F)F)c2)CCN1C(CO)CCCN1CCC2(CC2)[C@H](O)C1` (stereo partly drawn) [Example 32, 4-[(R,S)-4-((S)-4-Hydroxy-6-aza-spiro[2.5]oct-6-yl)-1-hydroxymethyl-butyl]-1-(3-trifluoromethoxy-phenyl)-[1,4]diazepan-5-one], the IC50 was determined as 140 nM.
For the molecule `O=C1CCN(c2cccc(C(F)(F)F)c2)CCN1CCCN1CCC(O)(c2ccccc2)CC1` [Example 34, 4-[3-(4-Hydroxy-4-phenyl-piperidin-1-yl)-propyl]-1-(3-trifluoromethyl-phenyl)-[1,4]diazepan-5-one], the 50% inhibitory concentration (IC50) was 930 nM.
Take `CC1C(=O)N(CCCN2CCCCC2)CCN1c1cccc(OC(F)(F)F)c1` (centres unmarked) [Example 41, 3-Methyl-1-(3-piperidin-1-yl-propyl)-4-(3-trifluoromethoxy-phenyl)-piperazin-2-one]: the IC50 was 580 nM.
As to `C[C@H]1C(=O)N(CCCN2CCCCC2)CCN1c1cccc(OC(F)(F)F)c1` [Example 42, (S)-3-Methyl-1-(3-piperidin-1-yl-propyl)-4-(3-trifluoromethoxy-phenyl)-piperazin-2-one], the half-maximal inhibitory concentration (IC50) stood at 180 nM.
`CC1C(=O)N(CCCN2CCC3(CC3)[C@H](O)C2)CCN1c1cccc(OC(F)(F)F)c1` (stereo partly drawn) [Example 44, 1-[3-((S)-4-Hydroxy-6-aza-spiro[2.5]oct-6-yl)-propyl]-3-methyl-4-(3-trifluoromethoxy-phenyl)-piperazin-2-one]: the IC50 came to 20 nM.
Take `C[C@H]1C(=O)N(CCCN2CCC3(CC3)[C@H](O)C2)CCN1c1cccc(OC(F)(F)F)c1` [Example 45, (S)-1-[3-((S)-4-Hydroxy-6-aza-spiro[2.5]oct-6-yl)-propyl]-3-methyl-4-(3-trifluoromethoxy-phenyl)-piperazin-2-one]: the IC50 was 10 nM.
As for `COC(=O)C(CCN1CCC2(CC2)[C@H](O)C1)N1CCN(c2cccc(OC(F)(F)F)c2)C(C)C1=O` (stereo partly drawn) [Example 47, 4-((S)-4-Hydroxy-6-aza-spiro[2.5]oct-6-yl)-2-[3-methyl-2-oxo-4-(3-trifluoromethoxy-phenyl)-piperazin-1-yl]-butyric acid methyl ester], the IC50 amounted to 10 nM.
`CC1C(=O)N(C(CCN2CCC3(CC3)[C@H](O)C2)C(=O)O)CCN1c1cccc(OC(F)(F)F)c1` (stereo partly drawn) [Example 48, 4-((S)-4-Hydroxy-6-aza-spiro[2.5]oct-6-yl)-2-[3-methyl-2-oxo-4-(3-trifluoromethoxy-phenyl)-piperazin-1-yl]-butyric acid]: the IC50 was found to be 30 nM.
For `CC1C(=O)N(C(CO)CCN2CCC3(CC3)[C@H](O)C2)CCN1c1cccc(OC(F)(F)F)c1` (stereo partly drawn) [Example 49, 1-[3-((S)-4-hydroxy-6-aza-spiro[2.5]oct-6-yl)-1-hydroxymethyl-propyl]-3-methyl-4-(3-trifluoromethoxy-phenyl)-piperazin-2-one] the value was 5 nM.
For the molecule `CC1C(=O)N(C(CCN2CCC3(CC3)[C@H](O)C2)C(=O)N(C)C)CCN1c1cccc(OC(F)(F)F)c1` (stereo partly drawn) [Example 50, 4-((S)-4-Hydroxy-6-aza-spiro[2.5]oct-6-yl)-N,N-dimethyl-2-[3-methyl-2-oxo-4-(3-trifluoromethoxy-phenyl)-piperazin-1-yl]-butyramide], the IC50 is 30 nM.
Regarding `CC1C(=O)N(CCCN2CCCCC2)CCN1c1cccc(C(F)(F)F)c1` (centres unmarked) [Example 51, 3-Methyl-1-(3-piperidin-1-yl-propyl)-4-(3-trifluoromethyl-phenyl)-piperazin-2-one], the IC50 was 190 nM.
The value for `C[C@H]1C(=O)N(CCCN2CCCCC2)CCN1c1cccc(C(F)(F)F)c1` [Example 52, (S)-3-Methyl-1-(3-piperidin-1-yl-propyl)-4-(3-trifluoromethyl-phenyl)-piperazin-2-one] was 130 nM; that for `COC(=O)C(CCN1CCC2(CC2)[C@H](O)C1)N1CCN(c2cccc(C(F)(F)F)c2)C(C)C1=O` (stereo partly drawn) [Example 54, 4-((S)-4-Hydroxy-6-aza-spiro[2.5]oct-6-yl)-2-[3-methyl-2-oxo-4-(3-trifluoromethyl-phenyl)-piperazin-1-yl]-butyric acid methyl ester] was 10 nM; that for `CC1C(=O)N(C(CO)CCN2CCC3(CC3)[C@H](O)C2)CCN1c1cccc(C(F)(F)F)c1` (stereo partly drawn) [Example 55, 1-[3-((S)-4-Hydroxy-6-aza-spiro[2.5]oct-6-yl)-1-hydroxymethyl-propyl]-3-methyl-4-(3-trifluoromethyl-phenyl)-piperazin-2-one] was 10 nM.
Consider `COCC(CCN1CCC2(CC2)[C@H](O)C1)N1CCN(c2cccc(C(F)(F)F)c2)C(C)C1=O` (stereo partly drawn) [Example 56, 1-[3-((S)-4-Hydroxy-6-aza-spiro[2.5]oct-6-yl)-1-methoxymethyl-propyl]-3-methyl-4-(3-trifluoromethyl-phenyl)-piperazin-2-one], for which the IC50 stood at 10 nM.
In the case of `CC1C(=O)N(CC2CCCN(C)C2)CCN1c1cccc(C(F)(F)F)c1` (centres unmarked) [Example 58, 3-Methyl-1-(1-methyl-piperidin-3-ylmethyl)-4-(3-trifluoromethyl-phenyl)-piperazin-2-one], the IC50 worked out at 680 nM.
`CN(C)C(=O)[C@H](CCN1CCC2(CC2)[C@H](O)C1)N1CCN(c2ccc(Cl)c(Cl)c2)CCC1=O` [Example 59, (S)-2-[4-(3,4-Dichloro-phenyl)-7-oxo-[1,4]diazepan-1-yl]-4-((S)-4-hydroxy-6-aza-spiro[2.5]oct-6-yl)-N,N-dimethyl-butyramide]: the IC50 is 80 nM.
With `CN(CCO)C(=O)[C@H](CCN1CCC2(CC2)[C@H](O)C1)N1CCN(c2ccc(Cl)c(Cl)c2)CCC1=O` [Example 61, (S)-2-[4-(3,4-Dichloro-phenyl)-7-oxo-[1,4]diazepan-1-yl]-4-((S)-4-hydroxy-6-aza-spiro[2.5]oct-6-yl)-N-(2-hydroxy-ethyl)-N-methyl-butyramide], the IC50 is 76 nM.
